Measurements: publication PMC11079029, “Intramolecular autoinhibition regulates the selectivity of PRPF40A tandem WW domains for proline-rich motifs” (Nature Communications, 2024)
Like-named read-outs stand apart in the source and are kept apart here.

Molecular target: T1, PRPF40A Mut N-ExtWW12 (Homo sapiens, UniProt O75400, L125A/P123A/P126A/P127A/P78A/P79A/P81A/V80A)
T1 construct: WW12long 141–248, and N-ext-WW12 56–236; 6xHis-TEV site (N, cleaved yes); made in house; host or cells: Escherichia coli BL21(DE3)
T1 sequence (O75400 56-236 P78A/P79A/V80A/P81A/P123A/L125A/P126A/P127A limits assumed): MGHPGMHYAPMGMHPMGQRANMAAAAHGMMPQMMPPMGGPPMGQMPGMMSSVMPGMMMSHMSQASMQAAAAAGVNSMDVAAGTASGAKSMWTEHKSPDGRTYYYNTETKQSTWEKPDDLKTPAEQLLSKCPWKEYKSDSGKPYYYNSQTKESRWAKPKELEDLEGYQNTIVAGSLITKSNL
Test: ITC of mutant N-ext-WW12 (PPVP/PALPP motifs changed to alanine) with SF1WWbs
Format: binding
Excerpt: While only partial backbone chemical shift assignments of this construct (69% completeness), N-ext-WW12, could be possible due to a highly repetitive sequence, a complete assignment of the methyl groups was achieved. We then performed a titration with the high-affinity peptide, SF1WWbs, by NMR. […] To further support this conclusion, we prepared a mutant version of the N-ext-WW12 construct, changing these two motifs to alanine residues, and observed clear shifting of NMR signals towards the free WW12 spectrum in the short version of the tandem. This corroborates that mainly these two proline-rich motifs govern the intramolecular interacting region (Supplementary Fig. 19).
To further confirm this analysis, we titrated SF1WWbs and the mutant version of the N-ext-WW12 construct (changing the PPVP/PALPP motifs for alanine residues).
PRPF40A isoform 1 sequences (N-ter 1–310, WW12short 141–223, WW12 141–236, WW12long 141–248, and N-ext-WW12 56–236) were amplified from a purchased DNA fragment (IDT) and cloned using NcoI and KpnI restriction sites into a pETM11 vector encoding 6xHis and TEV cleavage site as a N-terminal tag. SF1 (Pro A 410–468, Pro B 468–539, Pro C 539–594, Pro D 594–639, Pro BC 468–594, Pro CD 539–639, Pro BCD 468–639 and Pro ABCD 410–639) and SF3A1 (Middle Pro 364–413 and C-ter Pro 552–683) constructs were prepared in a similar manner using a pET24 vector with a 6xHis, GB1 and TEV cleavage site as N-terminal fusion cassette. 16-mer SF1 constructs (Table 1) and polyproline peptides (P6, P8, P10, P13, P16, P19, P22, P25, and P29) were cloned in the same pET24 vector with GB1 tag by direct ligation of purchased oligonucleotides (Eurofins). All peptide sequences contained N and C-terminal common residues to avoid boundary effects on binding: TEVsite-GAMSGS-peptide-SGSN. Mutants of PRPF40A WW12 and N-ext-WW12 constructs were prepared by site-directed mutagenesis. The truncated version of PRPF40A WW12 (141-217) was a gift from Dr. María Macías (IRB, Spain). All used oligonucleotides were purchased from Eurofins Genomics and are shown in Supplementary Table 6.
Experiments were conducted on a MicroCAl PEAQ-ITC (Malvern Instruments, UK) at 25 °C in 20 mM sodium phosphate pH 6.5 and 100 mM NaCl. PRPF40A was titrated into N-terminal GB1 tagged SF1 or polyproline constructs and vice versa with similar results. Protein concentrations in the cell were around 20–40 μM, while in the syringe ranged between 200 and 500 μM. Experiments were performed at least in duplicate with injections of 1.5 μL (0.4 μL for first point) separated by 150 s delays to recover thermal power baseline and continuous stirring in the cell (750 rpm) for correct mixing. The reference cell was filled with water in all experiments. Data were processed by removing the blank experiment (using digested GB1 fusion protein) and adjusted to one-site binding model with Malvern PEAQ-ITC Analysis software (Malvern Instruments, UK).

With PPLPPGAPPPPPPPPP [SF1WWbs] the “N (sites)” value (ITC as E10) was 0.84 ± 0.05 sites, the “DH” value (ITC binding enthalpy, as E10) was -21 ± 2.2 kcal/mol and the “Kd (µM)” value (ITC, 25 °C, 20 mM sodium phosphate pH 6.5, 100 mM NaCl, GB1-tagged SF1 16-mer, N-ext-WW12 with PPVP/PALPP changed to alanine, at least duplicates) was “comparable to the isolated WW tandem”. For the same sequence, the Kd (ITC, 25 °C, 20 mM sodium phosphate pH 6.5, 100 mM NaCl, GB1-tagged SF1 16-mer, N-ext-WW12 with PPVP/PALPP changed to alanine, at least duplicates, read-out: Kd) was 2210 ± 240 nM, the Kd (ITC, individual value 1 (replicate 1), read-out: Kd Values with Nter Ext WW12 MUTANT, individual value) was 2440 nM and the Kd (ITC, individual value 2 (replicate 2), read-out: Kd Values with Nter Ext WW12 MUTANT, individual value) was 1980 nM.
